According to ChEMBL document CHEMBL3046688, “Antitumor and Anti-Pneumocystis Carinii Activities of Novel Bisbenzamidines” (Med Chem Res, 2005):

How the values were obtained:
MCF7 = test: Cytotoxicity against Homo sapiens (human) MCF7 cells at 100 uM after 48 hr by SRB assay relative to control; type: cell-based; conditions: mcf7, 48 h
Pneumocystis carinii [1] = test: Ratio of pentamidine IC50 to compound IC50 for Pneumocystis carinii assessed as ATP level detection by bioluminescence assay; type: functional
NCI-H460 = test: Cytotoxicity against Homo sapiens (human) NCI-H460 cells at 100 uM after 48 hr by SRB assay relative to control; type: cell-based; conditions: nci-h460, 48 h
[2] = Binding affinity to Poly (dA-dT) DNA at 1:5 compound to DNA base pair ratio
[3] = Selectivity index, ratio of GI50 for human tumor cells to IC50 for Pneumocystis carini
SF-268 = test: Cytotoxicity against Homo sapiens (human) SF268 cells at 100 uM after 48 hr by SRB assay relative to control; type: cell-based; conditions: sf-268, 48 h
DNA = test: Binding affinity to Bos taurus (calf) thymus DNA at 1:5 compound to DNA base pair ratio; type: nucleic-acid assay
Pneumocystis carinii [4] = test: Antimicrobial activity against Pneumocystis carinii assessed as ATP level detection by bioluminescence assay; type: functional, organism-based
A498 = test: Growth inhibition of Homo sapiens (human) A498 cells after 48 hr by SRB assay; type: cell-based; conditions: a498, 48 h
SN12C = test: Growth inhibition of Homo sapiens (human) SN12C cells after 48 hr by SRB assay; type: cell-based
CAKI-1 = test: Growth inhibition of Homo sapiens (human) Caki1 cells after 48 hr by SRB assay; type: cell-based; conditions: caki-1, 48 h
Malme-3M = test: Growth inhibition of Homo sapiens (human) MALME-3M cells after 48 hr by SRB assay; type: cell-based
SR = test: Growth inhibition of Homo sapiens (human) SR cells after 48 hr by SRB assay; type: cell-based
[5] = Growth inhibition of Homo sapiens (human) ovarian cancer cells after 48 hr by SRB assay; type: cell-based; conditions: cancer cell lines

Row | ΔTm [2] [°C] | ΔTm (DNA) [°C] | IC50 (Pneumocystis carinii [4]) [nM] | SMILES | Activity (MCF7) [%] | Ratio IC50 (Pneumocystis carinii [1]) | Activity (NCI-H460) [%] | Selectivity Index [3] | Activity (SF-268) [%] | pGI50 (A498) | pGI50 (SN12C) | pGI50 (CAKI-1) | Activity (A498) | Activity (SN12C) | pGI50 (Malme-3M) | pGI50 (SR) | Activity [5]
1 | -0.2 | 0 | > 125000 | N#Cc1ccc(N2CCN(c3ccc(C#N)cc3)CC2)cc1 | 102 |  | 106 |  | 105 |  |  |  |  |  |  |  | 
2 | 17.9 | 12.2 | 3000 | c1cc(N2CCN(c3ccc(C4=NCCCN4)cc3)CC2)ccc1C1=NCCCN1 | 77 |  | 18 | >33 | 93 |  |  |  | Toxic | Toxic |  |  | 
3 | 21.3 | 15.5 | 4500 | c1cc(N2CCCN(c3ccc(C4=NCCCN4)cc3)CC2)ccc1C1=NCCCN1 | 42 |  | 28 | 18 | 55 |  |  |  | Toxic | Toxic |  |  | 
4 | 23.9 | 14.5 | 5400 | N=C(NC1CC1)c1ccc(N2CCN(c3ccc(C(=N)NC4CC4)cc3)CC2)cc1 | 108 |  | 74 | >19 | 115 |  |  |  |  |  |  |  | 
5 | 23.1 | 15 | 2000 | N=C(N)c1ccc(N2CCCN(c3ccc(C(=N)N)cc3)CC2)cc1 | 87 |  | 44 | 32 | 94 | 5.1 | 5.1 | 5.1 |  |  |  |  | 

The remaining lines, values behind:

Row | SMILES | ΔTm [2] [°C] | ΔTm (DNA) [°C] | IC50 (Pneumocystis carinii [4]) [nM] | Activity (MCF7) [%] | Ratio IC50 (Pneumocystis carinii [1]) | Activity (NCI-H460) [%] | Selectivity Index [3] | Activity (SF-268) [%] | pGI50 (A498) | pGI50 (SN12C) | pGI50 (CAKI-1) | Activity (A498) | Activity (SN12C) | pGI50 (Malme-3M) | pGI50 (SR) | Activity [5]
6 | N=C(N)c1ccc(NC(=O)CCCC(=O)Nc2ccc(C(=N)N)cc2)cc1 | 11.4 | 5.6 |  | 122 | 167 | 105 | >33333 | 121 |  |  |  |  |  |  |  | 
7 | N=C(N)c1ccc(COc2ccccc2OCc2ccc(C(=N)N)cc2)cc1 | -0.1 | 0.1 | 1700 | 42 |  | 5 | 24 | 27 | 5.1 | 5.1 | 5.1 |  |  |  |  | 
8 | N=C(N)c1ccc(OC(=O)c2ccc(C(=O)Oc3ccc(C(=N)N)cc3)cc2)cc1 [BIS(4-CARBAMIMIDOYLPHENYL)TEREPHTHALATE] | 10.4 | 9.9 |  | 79 |  | 96 | >8 | 94 |  |  |  |  |  |  |  | 
9 | N=C(N)c1ccc(NC(=O)CCCCC(=O)Nc2ccc(C(=N)N)cc2)cc1 | 14.4 | 8.7 |  | 34 | 167 | 75 | >50000 | 52 |  |  |  |  |  |  |  | 
10 | CCCCNC(=N)c1ccc(N2CCCN(c3ccc(C(=N)NCCCC)cc3)CC2)cc1 | 13.3 | 11.8 | 357 | 39 |  | 17 | 36 | 101 | 6.8 |  |  |  |  | 6.4 | 6.2 | 
11 | N#Cc1ccc(N2CCCN(c3ccc(C#N)cc3)CC2)cc1 |  |  |  | 70 |  | 92 |  | 101 |  |  |  |  |  |  |  | 
12 | N=C(NC1CC1)c1ccc(N2CCCN(c3ccc(C(=N)NC4CC4)cc3)CC2)cc1 | 23.6 | 15.3 | 1400 | 87 |  | 71 | >71 | 104 |  |  |  |  |  |  |  | 
13 | N=C(N)c1ccc(OCc2cccc(COc3ccc(C(=N)N)cc3)c2)cc1 | 23.9 | 14 | 2600 | 0 |  | 0 | 3 | 0 |  |  |  |  |  |  |  | Non-toxic
14 | N=C(N)c1ccc(OCCCCCOc2ccc(C(=N)N)cc2)cc1 [PENTAMIDINE] | 20.6 | 11.6 |  |  |  |  | 20 |  |  |  |  |  |  |  |  | 
